Data on eleven molecules can be found in patent publication US7691825B2, “Adenosine A2B receptor agonists” (King Pharmaceuticals Research and Development, Inc., priority 2006, dated 2010).

Values joined by “and” are separate entries in the source; they are usually repeats but may differ in a detail not shown here. Equal values may be shown once. Read-outs that look alike come from different tables or passages of the source.

For data set [1], the target named is T1, hA2A receptors expressed in CHO cells (Homo sapiens, UniProt P29274).
T1 construct: expressed in transfected cells; host or cells: CHO cells (stably transfected, per Klotz et al. 1998); membrane preparation
T1 sequence (P29274 whole entry): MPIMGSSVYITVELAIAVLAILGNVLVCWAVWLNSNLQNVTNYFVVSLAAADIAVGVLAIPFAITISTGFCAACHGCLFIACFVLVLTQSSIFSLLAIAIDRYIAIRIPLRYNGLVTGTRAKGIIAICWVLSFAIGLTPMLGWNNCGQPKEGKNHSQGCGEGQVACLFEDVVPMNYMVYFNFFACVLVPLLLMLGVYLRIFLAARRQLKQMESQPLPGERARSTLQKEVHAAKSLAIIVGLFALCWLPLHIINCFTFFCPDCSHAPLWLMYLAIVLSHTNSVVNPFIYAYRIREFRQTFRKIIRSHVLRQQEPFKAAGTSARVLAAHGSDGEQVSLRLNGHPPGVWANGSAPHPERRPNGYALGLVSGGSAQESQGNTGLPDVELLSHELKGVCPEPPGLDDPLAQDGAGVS
As to the kind of experiment: [3H]CGS21680 binding hA2A CHO cells. Particulars: [3H]-CGS 21680, hA2A CHO cell membranes, 180 min at 25° C.; mean ± s.e. mean.
Experimental: (§2) The cells are grown adherently and maintained in Dulbecco's Modified Eagles Medium with nutrient mixture F12 (DMEM/F12) without nucleosides, containing 10% fetal calf serum, penicillin (100 U/mL), streptomycin (100 μg/mL), L-glutamine (2 mM) and Geneticin (G418, 0.2 mg/mL) at 37° C. in 5% CO2/95% air. […] For membrane preparation the culture medium is removed and the cells are washed with PBS and scraped off T75 flasks in ice-cold hypotonic buffer (5 mM Tris HCl, 2 mM EDTA, pH 7.4). The cell suspension is homogenized and centrifuged for 30 min at 100,000×g. The membrane pellet is re-suspended in 50 mM Tris HCl buffer pH 7.4 and incubated with 2 UI/mL of adenosine deaminase for 30 min at 37° C.
(§3) Binding of 1 nM [^3H]—CHA to hA1CHO cells (50 μg of protein/assay) is performed using 50 mM Tris HCl buffer pH 7.4 and at least 6-8 different concentrations of agonists studied for an incubation time of 150 min at 25° C. […] Non-specific binding is determined in the presence of 10 μM of CHA and is about 20% of the total binding. […] Filter bound radioactivity is measured by scintillation spectrometry after addition of 5 mL of Aquassure.
(§4) All experimental data are expressed as the mean±standard error of the mean (s.e. mean) of three or four independent experiments performed in duplicate.

Data set [2] deals with T2, hA2B receptors expressed in CHO cells (Homo sapiens, UniProt P29275).
T2 construct: expressed in transfected cells; host or cells: CHO cells
T2 sequence (P29275 1-332): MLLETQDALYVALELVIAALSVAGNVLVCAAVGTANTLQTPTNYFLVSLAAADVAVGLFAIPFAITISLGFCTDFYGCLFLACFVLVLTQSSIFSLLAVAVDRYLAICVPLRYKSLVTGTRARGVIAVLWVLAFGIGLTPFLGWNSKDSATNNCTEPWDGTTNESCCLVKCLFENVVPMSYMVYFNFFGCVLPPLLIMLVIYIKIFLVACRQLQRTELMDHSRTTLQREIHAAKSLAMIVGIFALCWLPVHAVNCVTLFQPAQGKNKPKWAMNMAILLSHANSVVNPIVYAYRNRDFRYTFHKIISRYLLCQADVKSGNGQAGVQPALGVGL
Nature of the data set: cAMP assay hA2B CHO cells. The format is cell-based. The conditions noted are these: for EC50: stimulation of cAMP levels, hA2B CHO cells, mean ± s.e. mean; for Selectivity hA1/hA2B: ratio hA1 Ki / hA2B EC50; for Selectivity hA2A/hA2B: ratio hA2A Ki / hA2B EC50; for Selectivity hA3/hA2B: ratio hA3 IC50 / hA2B EC50. Here is the method:
The effects of the tested compounds may be evaluated in functional assays measuring the stimulatory capability of the ligands to increase cAMP levels in hA2B receptors expressed in CHO cells. This may done as described by Pastorin et al. in “Pyrazolo[4,3-e]-1,2,4-triazolo[1,5-c]pyrimidine derivatives as adenosine receptor antagonists.
(§1) For cell preparation CHO cells transfected with human A2B or A3 receptors are washed with phosphate-buffered saline and diluted trypsin, and centrifuged for 10 min at 200 g. […] After the preincubation time at 37° C., the examined ligands (1 nM-10 μM) are added to the mixture and incubated for a further 5 min. The reaction is terminated by the addition of cold 6% trichloroacetic acid (TCA). The TCA suspension is centrifuged at 2000 g for 10 min at 4° C. and the supernatant is extracted four times with water saturated diethyl ether. […] Samples of cyclic AMP standard (0-10 pmoles) are added to each test tube containing the incubation buffer (trizma base 0.1 mM, aminophylline 8.0 mM, 2-mercaptoethanol 6.0 mM, pH 7.4) and [^3H]cyclic AMP in total volume of 0.5 mL. The binding protein previously incubated at 4° C. for 150 min, and after the addition of charcoal is centrifuged at 2000 g for 10 min. The clear supernatant is counted in a Beckman scintillation counter.
(In general: Cyclic AMP is a second messenger, typically raised through Gs and lowered through Gi signalling.)

In data set [3] the target is T3, human A3 receptors in CHO cells (Homo sapiens, UniProt P0DMS8).
T3 construct: expressed in transfected cells; host or cells: CHO cells
T3 sequence (P0DMS8 1-318): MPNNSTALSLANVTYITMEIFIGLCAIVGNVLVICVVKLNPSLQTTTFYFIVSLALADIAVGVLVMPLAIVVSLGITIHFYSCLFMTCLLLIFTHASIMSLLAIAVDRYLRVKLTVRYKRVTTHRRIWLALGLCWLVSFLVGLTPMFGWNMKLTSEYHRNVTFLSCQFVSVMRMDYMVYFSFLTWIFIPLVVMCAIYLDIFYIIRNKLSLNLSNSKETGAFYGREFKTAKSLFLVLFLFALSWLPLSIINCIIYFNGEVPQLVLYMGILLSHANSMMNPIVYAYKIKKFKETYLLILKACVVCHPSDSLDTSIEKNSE
Nature of the data set: cAMP assay hA3 CHO cells. It is filed as cell-based. Particulars: cyclic AMP assay, mean ± s.e. mean. Here is the method:
as §1

For data set [4], the target named is T4, hA1 receptors expressed in CHO cells (Homo sapiens, UniProt P30542).
T4 sequence (P30542 1-326): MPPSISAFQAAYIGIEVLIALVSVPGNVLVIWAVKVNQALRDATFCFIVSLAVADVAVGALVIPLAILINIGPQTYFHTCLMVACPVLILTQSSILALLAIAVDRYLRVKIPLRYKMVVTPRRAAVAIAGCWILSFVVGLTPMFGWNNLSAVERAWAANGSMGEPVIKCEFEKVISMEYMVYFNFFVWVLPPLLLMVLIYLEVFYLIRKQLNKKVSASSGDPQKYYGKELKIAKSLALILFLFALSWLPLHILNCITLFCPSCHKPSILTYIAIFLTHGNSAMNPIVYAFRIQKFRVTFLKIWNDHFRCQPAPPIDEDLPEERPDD
Nature of the data set: [3H]CHA binding hA1 CHO cells.
Experimental: as §2, §3, §4

What is called melting point is the temperature of the solid-liquid transition. As usually defined, the Ki is a measure of affinity in units of concentration, obtained from inhibition or displacement. By EC50 is commonly meant the midpoint of the concentration-response curve. Usually IC50 stands for the midpoint of a concentration-inhibition curve. Regarding `CCNC(=O)[C@H]1O[C@@H](n2cnc3c(NNC(=O)c4ccccc4)ncnc32)[C@H](O)[C@@H]1O` [Compound 9b, (2S, 3S, 4R, 5R)-5-[6-(N′-Benzoyl-hydrazino)-9H-purin-9-yl]-3,4-dihydroxy-tetrahydrofuran-2 carboxylic acid ethylamide], the melting point was 174 to 175 °C and 173 to 174 °C. Further, in data set [1], the Ki is above 1000 nM. Also, the EC50 in data set [2] is above 1000 nM. The IC50 in data set [3] is above 1000 nM. This molecule came in with a Ki in data set [4] above 1000 nM.

As to `CCNC(=O)[C@H]1O[C@@H](n2cnc3c(NNC(=O)c4ccc(Cl)cc4)ncnc32)[C@H](O)[C@@H]1O` [Compound 10b, (2S, 3S, 4R, 5R)-5-{6-[N′-(4-Chlorobenzoyl)-hydrazino]-9H-purin-9-yl}-3,4-dihydroxy-tetrahydrofuran-2-carboxylic acid ethylamide], the melting point was in the range of 188 to 189 °C. Moreover, the Ki in data set [1] was above 1000 nM. The same molecule came in with an EC50 in data set [2] above 1000 nM. The IC50 in data set [3] is above 1000 nM. This molecule also had an inhibition constant Ki in data set [4] above 1000 nM.

`CCNC(=O)[C@H]1O[C@@H](n2cnc3c(NNC(=O)c4cccnc4)ncnc32)[C@H](O)[C@@H]1O` [Compound 11b, (2S, 3S, 4R, 5R)-3,4-Dihydroxy-5-{6-[N′-(pyridine-3-carbonyl)-hydrazino]-9H-purin-9-yl}-tetrahydrofuran-2-carboxylic acid ethylamide]: the melting point is 170 °C. In data set [1], this molecule displayed a Ki above 1000 nM. Further, in data set [2], the EC50 is above 1000 nM. Also, in data set [3], the IC50 was above 1000 nM. The Ki in data set [4] is above 1000 nM.

In the case of `CCNC(=O)[C@H]1O[C@@H](n2cnc3c(NNC(=O)c4ccco4)ncnc32)[C@H](O)[C@@H]1O` [Compound 12b, (2S, 3S, 4R, 5R)-5-{6-[N′-(Furan-2-carbonyl)-hydrazino]-9H-purin-9-yl}-3,4-dihydroxy-tetrahydrofuran-2-carboxylic acid ethylamide], the melting point lay in the range of 233 to 234 °C. The Ki in data set [1] was above 1000 nM. In data set [2], the “Selectivity hA1/hA2B” value is above 12.19, the “Selectivity hA2A/hA2B” value was above 12.19, the “Selectivity hA3/hA2B” value is listed as above 12.19 and it took 82 ± 10 nM to reach a half-maximal effect (EC50). The IC50 in data set [3] was above 1000 nM. For the same molecule, the Ki in data set [4] is above 1000 nM.

In the case of `CCNC(=O)[C@H]1O[C@@H](n2cnc3c(NNC(=O)c4ccc(Br)o4)ncnc32)[C@H](O)[C@@H]1O` [Compound 13b, (2S, 3S, 4R, 5R)-5-{6-[N′-(5-Bromo-furan-2-carbonyl)-hydrazino]-9H-purin-9-yl}-3,4-dihydroxy-tetrahydrofuran-2-carboxylic acid ethylamide], the melting point turned out to be 171 °C.

With `CCNC(=O)[C@H]1O[C@@H](n2cnc3c(NNC(=O)c4ccc(C)o4)ncnc32)[C@H](O)[C@@H]1O` [Compound 14b, (2S, 3S, 4R, 5R)-3,4-Dihydroxy-5-{6-[N′-(5-methyl-furan-2-carbonyl)-hydrazino]-9H-purin-9-yl}-tetrahydrofuran-2-carboxylic acid ethylamide], the melting point was in the range of 154 to 155 °C. In data set [1], this molecule registered a Ki of 1300 ± 50 nM. In addition, in data set [2], the “Selectivity hA1/hA2B” value is 3.08, the “Selectivity hA2A/hA2B” value was 5.73, the “Selectivity hA3/hA2B” value is above 4.40 and the EC50 was 227 ± 18 nM. This molecule displayed an IC50 in data set [3] above 1000 nM. Further, the Ki in data set [4] (read-out: [3H]CHA binding hA1 CHO cells Ki, 1 nM [3H]-CHA, hA1 CHO cell membranes, 150 min at 25° C., mean ± s.e. mean) was determined as 700 ± 25 nM.

`CCNC(=O)[C@H]1O[C@@H](n2cnc3c(NNC(=O)c4nc([N+](=O)[O-])cn4C)ncnc32)[C@H](O)[C@@H]1O` [Compound 15b, (2S, 3S, 4R, 5R)-3,4-Dihydroxy-5-{6-[N′-(1-methyl-4-nitro-1H-imidazole-2-carbonyl)-hydrazino]-9H-purin-9-yl}-tetrahydrofuran-2-carboxylic acid ethylamide] registered a melting point of 169 to 170 °C. Further, in data set [1], the Ki was above 1000 nM. The molecule further yielded an EC50 in data set [2] above 1000 nM. Besides, in data set [3], the IC50 was above 1000 nM. Also, the Ki in data set [4] was above 1000 nM.

On to `CCNC(=O)[C@H]1O[C@@H](n2cnc3c(NNC(=O)c4ccc(C)s4)ncnc32)[C@H](O)[C@@H]1O` [Compound 16b, (2S, 3S, 4R, 5R)-3,4-Dihydroxy-5-{6-[N′-(5-methyl-thiophene-2-carbonyl)-hydrazino]-9H-purin-9-yl}-tetrahydrofuran-2-carboxylic acid ethylamide], for which the melting point lay in the range of 153 to 154 °C. Moreover, in data set [1], the Ki is above 1000 nM. Moreover, in data set [2], the “Selectivity hA1/hA2B” value is reported as above 3.66, the “Selectivity hA2A/hA2B” value is above 3.66, the “Selectivity hA3/hA2B” value is on record as above 3.66 and the EC50 was found to be 273 ± 12 nM. For the same molecule, the IC50 in data set [3] was above 1000 nM. This molecule registered a Ki in data set [4] above 1000 nM.

With `CCNC(=O)[C@H]1O[C@@H](n2cnc3c(NNC(=O)c4ccccc4)nc(Cl)nc32)[C@H](O)[C@@H]1O` [Compound 17b, (2S, 3S, 4R, 5R)-5-[6{N′-Benzoyl-hydrazino)-2-chloro-9H-purin-9-yl}-3,4-dihydroxy-tetrahydrofuran-2-carboxylic acid ethylamide], the melting point fell in the range of 253 to 254 °C. In data set [1], this molecule yielded a Ki above 1000 nM. Besides, the EC50 in data set [2] was above 1000 nM. Moreover, the IC50 in data set [3] is above 1000 nM. Moreover, the Ki in data set [4] is above 1000 nM.

`CCNC(=O)[C@H]1O[C@@H](n2cnc3c(NNC(=O)c4ccco4)nc(Cl)nc32)[C@H](O)[C@@H]1O` [Compound 18b, (2S, 3S, 4R, 5R)-5-{2-Chloro-6-[N′-(furan-2-carbonyl)-hydrazino]-9H-purin-9-yl}-3,4-dihydroxy-tetrahydrofuran-2-carboxylic acid ethylamide] showed a melting point of 269 to 270 °C. In data set [1], this molecule displayed a Ki above 1000 nM. In data set [2], the “Selectivity hA1/hA2B” value is recorded as above 4.76, the “Selectivity hA2A/hA2B” value was above 4.76, the “Selectivity hA3/hA2B” value was above 4.76 and a half-maximal effect (EC50) was put at 210 ± 13 nM. In data set [3], this molecule displayed a concentration for half-maximal inhibition (IC50) above 1000 nM. The molecule further showed a Ki in data set [4] above 1000 nM.

`CCNC(=O)[C@H]1O[C@@H](n2cnc3c(NNC(=O)c4ccc(C)s4)nc(Cl)nc32)[C@H](O)[C@@H]1O` [Compound 19b, (2S, 3S, 4R, 5R)-5-{2-Chloro-6-[N′-(5-methyl-thiophene-2-carbonyl)-hydrazino]-9H-purin-9-yl}-3,4-dihydroxy-tetrahydrofuran-2-carboxylic acid ethylamide] registered a melting point of 156 °C. The molecule further came in with an inhibition constant (Ki) in data set [1] above 1000 nM. Further, in data set [2], the “Selectivity hA1/hA2B” value was above 5.71, the “Selectivity hA2A/hA2B” value was above 5.71, the “Selectivity hA3/hA2B” value was above 5.71 and a half-maximal response (EC50) required 175 ± 20 nM. The IC50 in data set [3] was above 1000 nM. Further, the Ki in data set [4] is above 1000 nM.
